According to patent US20250144067A1, “PERSONALIZED STARVATION THERAPY FOR CANCER” (Faeth Therapeutics, Inc., priority 2021, published 2025):
Where a name gives a salt, the structure may show the parent alone.

How the values were obtained:
[1] = tested on: NCI-H292 lung cancer cells; assay: FDA drug screening, complete media vs cholesterol-free media without statin (TABLE 1); format: cell-based, human
[2] = tested on: NCI-H292 lung cancer cells; assay: FDA drug screening, complete media vs cholesterol-free media with simvastatin (TABLE 2); format: cell-based, human; conditions: for Cholesterol-free media + simvastatin (0.04 μM) / Complete Media: NCI-H292 cells
[3] = Complete minus Cholesterol-free, >0 enhanced anti-cancer activity, about 0 neutral, <0 antagonist
[4] = NCI-H292 cells, cholesterol-free media without statin, FDA drug library screen
[5] = NCI-H292 cells, complete media, FDA drug library screen
[6] = FDA library drug in cholesterol-free media with simvastatin 0.04 μM
[7] = FDA library drug in complete media
[8] = complete media vs cholesterol-free media + simvastatin (0.04 μM), >0 enhanced anti-cancer activity, about 0 neutral, <0 antagonist
[9] = Complete minus Cholesterol-free, greater than 0 enhanced anti-cancer activity, about 0 neutral, below 0 antagonist
[10] = NCI-H292 cells, FDA drug library screen, cholesterol-free media without statin
[11] = cholesterol-free media with simvastatin 0.04 μM, FDA drug library screen (TABLE 2)
[12] = complete media, FDA drug library screen (TABLE 2)
[13] = complete media minus cholesterol-free media + simvastatin (0.04 μM), >0 enhanced anti-cancer activity, about 0 neutral, <0 antagonist
[14] = complete vs cholesterol-free media, >0 enhanced anti-cancer activity, about 0 neutral, <0 antagonist
[15] = NCI-H292 cells, cholesterol-free media without statin
[16] = complete vs cholesterol-free media, […]
[17] = FDA drug library screen, cholesterol-free media with simvastatin 0.04 μM
[18] = FDA drug library screen, complete media
[19] = complete media vs cholesterol-free media + simvastatin (0.04 μM), […]
[20] = complete media minus cholesterol-free media + simvastatin, >0 enhanced anti-cancer activity, about 0 neutral, <0 antagonist
[21] = drug in cholesterol-free media with simvastatin 0.04 μM
[22] = cholesterol-free media with simvastatin 0.04 μM, cell growth value in FDA drug screen
[23] = complete media, cell growth value in FDA drug screen
[24] = NCI-H292 cells, FDA drug library screen, complete media
[25] = Complete minus Cholesterol-free, […]
[26] = complete vs cholesterol-free media, greater than 0 enhanced anti-cancer activity, about 0 neutral, below 0 antagonists

O=C1CCC[C@@H]2[C@H]3CCC[N+]4([O-])CCC[C@@H](CN12)[C@@H]34 (some centres unmarked) [Oxymatrine]
Difference [1, 3]: 0.05 | Cholesterol-free [1, 4]: 0.9493 | Complete [1, 5]: 0.9958 | Cholesterol-free media + simvastatin (0.04 μM) [2, 6]: 1.185 | Complete Media [2, 7]: 0.9014 | Difference [2, 8]: −0.28

CCCCC1C(=O)N(c2ccccc2)N(c2ccc(O)cc2)C1=O (centres unmarked) [Oxyphenbutazone]
Difference [1, 9]: −0.11 | Cholesterol-free [1, 10]: 1.282 | Cholesterol-free media + simvastatin (0.04 μM) [2, 6]: 1.844 | Complete Media [2, 7]: 1.056 | Difference [2, 8]: −0.79

CN(C)[C@@H]1C(O)=C(C(N)=O)C(=O)[C@@]2(O)C(O)=C3C(=O)c4c(O)cccc4[C@@](C)(O)[C@H]3[C@H](O)[C@@H]12 [Oxytetracycline (hydrochloride)]
Difference ([1]; Complete minus Cholesterol-free, greater than 0 enhanced anti-cancer activity, about 0 neutral, below 0 antagonists): −0.72 | Cholesterol-free ([1]; NCI-H292 cells in cholesterol-free media without statin): 1.728 | Complete ([1]; NCI-H292 cells in complete media): 1.007 | Cholesterol-free media + simvastatin (0.04 μM) [2, 11]: 0.991 | Complete Media [2, 12]: 0.9652 | Difference [2, 13]: −0.03

CN(C)[C@@H]1C(O)=C(C(N)=O)C(=O)[C@@]2(O)C(O)=C3C(=O)c4c(O)cccc4[C@@](C)(O)[C@H]3[C@H](O)[C@@H]12 [Oxytetracycline]
Cholesterol-free [1, 4]: 0.9301 | Complete [1, 5]: 1.086 | Difference [1, 14]: 0.16 | Cholesterol-free media + simvastatin (0.04 μM) [2, 6]: 2.284 | Complete Media [2, 7]: 1.447 | Difference [2, 8]: −0.84

CC[C@H](C)[C@@H]1NC(=O)[C@H](Cc2ccc(O)cc2)NC(=O)[C@@H](N)CSSC[C@@H](C(=O)N2CCC[C@H]2C(=O)N[C@@H](CC(C)C)C(=O)NCC(N)=O)NC(=O)[C@H](CC(N)=O)NC(=O)[C@H](CCC(N)=O)NC1=O [Oxytocin]
Cholesterol-free [1, 15]: 1.585 | Complete ([1]; NCI-H292 cells, complete media): 1.211 | Difference [1, 16]: −0.37 | Cholesterol-free media + simvastatin (0.04 μM) [2, 17]: 1.057 | Complete Media [2, 18]: 0.9051 | Difference [2, 19]: −0.15

O=C(O)/C=C/c1ccc(Cn2ccnc2)cc1 [Ozagrel (hydrochloride)]
Cholesterol-free [1, 4]: 0.9304 | Complete [1, 5]: 1.021 | Difference [1, 14]: 0.09 | Cholesterol-free media + simvastatin (0.04 μM) [2, 17]: 1.247 | Complete Media [2, 18]: 1.131 | Difference [2, 8]: −0.12

O=C(O)/C=C/c1ccc(Cn2ccnc2)cc1 [Ozagrel (sodium)]
Difference [1, 3]: −0.07 | Cholesterol-free [1, 4]: 1.134 | Complete [1, 5]: 1.068 | Cholesterol-free media + simvastatin (0.04 μM) [2, 11]: 1.082 | Complete Media [2, 12]: 1.026 | Difference [2, 13]: −0.06

O=C(O)/C=C/c1ccc(Cn2ccnc2)cc1 [Ozagrel]
Difference [1, 3]: −0.04 | Cholesterol-free [1, 4]: 1.079 | Complete [1, 5]: 1.034 | Cholesterol-free media + simvastatin (0.04 μM) [2, 17]: 1.504 | Complete Media [2, 18]: 1.942 | Difference [2, 20]: 0.44

CC(C)Oc1ccc(-c2nc(-c3cccc4c3CC[C@@H]4NCCO)no2)cc1C#N [Ozanimod]
Difference [1, 3]: −0.03 | Cholesterol-free [1, 4]: 1.036 | Complete [1, 5]: 1.004 | Cholesterol-free media + simvastatin (0.04 μM) [2, 21]: 1.119 | Complete Media ([2]; drug in complete media): 0.9531 | Difference [2, 8]: −0.17

CNc1ncc(-c2ccc3c(=O)c(C(=O)O)cn(C4CC4)c3c2C)cc1C [Ozenoxacin]
Cholesterol-free [1, 15]: 1.08 | Complete ([1]; NCI-H292 cells, complete media): 0.7589 | Difference [1, 16]: −0.32 | Cholesterol-free media + simvastatin (0.04 μM) [2, 17]: 0.8626 | Complete Media [2, 18]: 0.762 | Difference [2, 19]: −0.10

CC(=O)O[C@H]1C(=O)[C@@]2(C)[C@H]([C@H](OC(=O)c3ccccc3)[C@]3(O)C[C@H](OC(=O)[C@H](O)[C@@H](NC(=O)c4ccccc4)c4ccccc4)C(C)=C1C3(C)C)[C@]1(OC(C)=O)CO[C@@H]1C[C@@H]2O [Paclitaxel]
Difference [1, 3]: −0.01 | Cholesterol-free [1, 4]: 0.0662 | Complete [1, 5]: 0.05705 | Cholesterol-free media + simvastatin (0.04 μM) [2, 11]: 0.2107 | Complete Media [2, 12]: 0.1648 | Difference [2, 13]: −0.05

COc1ccc(C(C)=O)c(O)c1 [Paeonol]
Difference [1, 3]: −0.29 | Cholesterol-free [1, 15]: 1.074 | Complete ([1]; NCI-H292 cells, complete media): 0.7804 | Cholesterol-free media + simvastatin (0.04 μM) [2, 22]: 1.081 | Complete Media [2, 23]: 1.107 | Difference [2, 20]: 0.03

CC(=O)c1c(C)c2cnc(Nc3ccc(N4CCNCC4)cn3)nc2n(C2CCCC2)c1=O [Palbociclib (hydrochloride)]
Difference [1, 3]: −0.26 | Cholesterol-free [1, 15]: 1.289 | Complete ([1]; NCI-H292 cells, complete media): 1.028 | Cholesterol-free media + simvastatin (0.04 μM) [2, 21]: 1.037 | Complete Media ([2]; drug in complete media): 0.8185 | Difference [2, 8]: −0.22

CC(=O)c1c(C)c2cnc(Nc3ccc(N4CCNCC4)cn3)nc2n(C2CCCC2)c1=O.O=S(=O)(O)CCO [Palbociclib (isethionate)]
Difference [1, 3]: −0.25 | Cholesterol-free [1, 15]: 0.905 | Complete ([1]; NCI-H292 cells, complete media): 0.6502 | Cholesterol-free media + simvastatin (0.04 μM) [2, 11]: 0.7514 | Complete Media [2, 12]: 0.6914 | Difference [2, 13]: −0.06

CCCCCCCCCCCCCCCC(=O)OC1CCCn2c1nc(C)c(CCN1CCC(c3noc4cc(F)ccc34)CC1)c2=O (centres unmarked) [Paliperidone palmitate]
Difference [1, 9]: −0.16 | Cholesterol-free [1, 10]: 1.234 | Complete [1, 24]: 1.075 | Cholesterol-free media + simvastatin (0.04 μM) [2, 6]: 1.193 | Complete Media [2, 7]: 0.8268 | Difference [2, 8]: −0.37

Cc1nc2n(c(=O)c1CCN1CCC(c3noc4cc(F)ccc34)CC1)CCCC2O (centres unmarked) [Paliperidone]
Difference [1, 9]: −0.18 | Cholesterol-free [1, 10]: 0.8391 | Complete [1, 24]: 0.6569 | Cholesterol-free media + simvastatin (0.04 μM) [2, 6]: 1.086 | Complete Media [2, 7]: 0.8023 | Difference [2, 8]: −0.28

COc1cc2c(cc1OC)-c1cc3ccc(OC)c(OC)c3c[n+]1CC2.[Cl-] [Palmatine (chloride)]
Difference [1, 25]: −0.14 | Cholesterol-free [1, 10]: 0.7642 | Complete [1, 24]: 0.6255 | Cholesterol-free media + simvastatin (0.04 μM) [2, 11]: 0.706 | Complete Media [2, 12]: 0.6459 | Difference ([2]; complete media minus cholesterol-free media + simvastatin (0.04 μM), […]): −0.06

O=C1c2cccc3c2[C@H](CCC3)CN1[C@@H]1CN2CCC1CC2 [Palonosetron (Hydrochloride)]
Cholesterol-free [1, 15]: 1.075 | Complete ([1]; NCI-H292 cells, complete media): 0.7009 | Difference [1, 26]: −0.37 | Cholesterol-free media + simvastatin (0.04 μM) [2, 21]: 1.184 | Complete Media ([2]; drug in complete media): 0.927 | Difference [2, 8]: −0.26

Cn1c(=O)c2[nH]c(Br)nc2n(C)c1=O [Pamabrom]
Difference [1, 9]: −0.16 | Cholesterol-free [1, 10]: 0.9285 | Complete [1, 24]: 0.7717 | Cholesterol-free media + simvastatin (0.04 μM) [2, 22]: 0.9207 | Complete Media [2, 23]: 0.9433 | Difference [2, 20]: 0.02

NCCC(O)(P(=O)([O-])O)P(=O)([O-])O.O.O.O.O.O.[Na+].[Na+] [Pamidronate (disodium pentahydrate)]
Difference [1, 9]: −0.12 | Cholesterol-free [1, 10]: 1.305 | Complete [1, 24]: 1.183 | Cholesterol-free media + simvastatin (0.04 μM) [2, 17]: 1.169 | Complete Media [2, 18]: 1.009 | Difference [2, 8]: −0.16

NCCC(O)(P(=O)(O)O)P(=O)(O)O [Pamidronic acid]
Difference [1, 9]: −0.18 | Cholesterol-free [1, 10]: 0.8132 | Complete [1, 24]: 0.6309 | Cholesterol-free media + simvastatin (0.04 μM) [2, 11]: 1.09 | Complete Media [2, 12]: 1.049 | Difference [2, 13]: −0.04

CC1(C)CCC[C@](C)([C@H]2CC[C@]3(C)[C@@H]2[C@H](O)C[C@@H]2[C@@]4(C)CC[C@H](O)C(C)(C)[C@@H]4[C@@H](O)C[C@]23C)O1 [Panaxatriol]
Difference [1, 25]: −0.09 | Cholesterol-free [1, 10]: 1.136 | Complete [1, 24]: 1.044 | Cholesterol-free media + simvastatin (0.04 μM) [2, 17]: 1.085 | Complete Media [2, 18]: 0.956 | Difference [2, 19]: −0.13

CC(=O)O[C@H]1C[C@@H]2CC[C@@H]3[C@H](CC[C@@]4(C)[C@H]3C[C@H]([N+]3(C)CCCCC3)[C@@H]4OC(C)=O)[C@@]2(C)C[C@@H]1[N+]1(C)CCCCC1.[Br-].[Br-] [Pancuronium (dibromide)]
Cholesterol-free [1, 15]: 1.193 | Complete ([1]; NCI-H292 cells, complete media): 0.8678 | Difference [1, 16]: −0.33 | Cholesterol-free media + simvastatin (0.04 μM) [2, 21]: 1.121 | Complete Media ([2]; drug in complete media): 0.885 | Difference [2, 19]: −0.24

Cc1[nH]c2ccccc2c1CCNCc1ccc(/C=C/C(=O)NO)cc1 [Panobinostat]
Difference [1, 3]: −0.03 | Cholesterol-free [1, 4]: −0.004474 | Complete [1, 5]: −0.02997 | Cholesterol-free media + simvastatin (0.04 μM) [2, 11]: 0.008426 | Complete Media [2, 12]: −0.004725 | Difference [2, 13]: −0.01

COc1ccnc(C[S+]([O-])c2nc3ccc(OC(F)F)cc3[nH]2)c1OC (centres unmarked) [Pantoprazole (sodium hydrate)]
Cholesterol-free [1, 15]: 1.314 | Complete ([1]; NCI-H292 cells, complete media): 0.9437 | Difference [1, 26]: −0.37 | Cholesterol-free media + simvastatin (0.04 μM) [2, 17]: 1.494 | Complete Media [2, 18]: 1.718 | Difference [2, 20]: 0.22

COc1ccnc(C[S+]([O-])c2nc3cc(OC(F)F)ccc3[n-]2)c1OC.[Na+] (centres unmarked) [Pantoprazole (sodium)]
Difference [1, 25]: −0.01 | Cholesterol-free [1, 4]: 0.8197 | Complete [1, 5]: 0.8107 | Cholesterol-free media + simvastatin (0.04 μM) ([2]; cholesterol-free media with simvastatin 0.04 μM, […]): 1.655 | Complete Media ([2]; complete media, […]): 1.781 | Difference ([2]; complete media minus cholesterol-free media + simvastatin, […]): 0.13
